Results on three compounds are retold here after patent US7271146B2, “Methods for treatment of Helicobacter pylori-associated disorders” (Vecta Ltd., priority 2002, dated 2007).

Like-named read-outs stand apart in the source and are kept apart here.

One experiment relates to H. pylori. As to the kind of experiment: H. pylori growth with omeprazole, pentagastrin, amoxycillin and combinations, monitored spectrophotometrically. The format is cell-based. The settings on record: single or triple-combined treatment; 18, 24, 46 hours; FIG. 3. How it is done:
In an attempt to optimize the antibacterial formulation for eradication of H. pylori, the effect of pentagastrin and omeprazole provided in combination with amoxicillin was tested. Amoxicillin is a commonly accepted antibiotic used for H. pylori treatment. To investigate the effect of triple administration we tested the growth of bacteria in the presence of omeprazole, pentagastrin, amoxycillin, and their possible combinations was tested. Bacteria grown in the absence of any agent was used as a negative control. The level of bacterial growth was monitored spectrophotometrically after 18, 24, and 46 hours of treatment.

The subject of experiment [1] is H. pylori (H-88 clinical isolate). As to the kind of experiment: H. pylori growth in liquid medium, CFU counts, 48 hours. Type of experiment: cell-based. The conditions noted are these: 48 hours incubation, FIG. 1A.
Another experiment deals with acid secretion. The conditions noted are these: oral PG, cited from earlier work.
Experiment [2] is described as follows: Blood glucose levels in pylorus-ligated rats challenged with oral PG. The format is in vivo. The conditions noted are these: compared to controls, FIG. 6. How it is done:
The observed effects of stimulation of gastric acid secretion may occur by different mechanisms. PG may be digested by gastric enzymes and the resulting free amino acids may stimulate acid secretion directly. Alternatively, the intact peptide may be actually absorbed from the gastric lumen and exert its effect on CCK-B receptors on the ECL and parietal cells. […] Since blood glucose levels reflect the activity of peripheral insulin, glucose levels were measured in the pylorus-ligated rats following the administration of PG or saline. These measurements served as a surrogate marker for PG-induced insulin release via activation of CCK-B receptors on the ECL and parietal cells. […] This observation supports the notion that the PG was absorbed intact and thereby could directly exert its effect on gastric tissue and stimulate secretion of gastric acid. […] B. Co-Administration of PG and Omeprazole

Experiment [3] concerns gastric acid secretion. As to the kind of experiment: Gastric acid secretion after oral PG in fasted rats, no pylorus ligation. Type of experiment: in vivo, Wistar Hanover rats. The conditions noted are these: PG 50 μg P.O. How it is done: (§1) Male and female Wistar Hanover rats, 7-10 weeks of age, were obtained from Harlan Laboratories (Rehovot, Israel). Animals were fed standard chow and received unlimited water supply. The animals were kept in automatically controlled temperature (between 20-24° C.), a 12-hour light/dark cycle, and 15 air changes an hour.
(§2) Rats were fasted (with water freely available) for 24 hours before experimentation. PG or saline were introduced into the stomach by means of a steel feeding needle. Thereafter, the animals were injected with Domitor and Ketaset; the abdominal wall was dissected and gastric fluid (approximately 30 μl) was collected by puncture with a needle (0.45×13 2006-09 Artsana S.P.A., Grandate (CO), Italy) at the indicated time points. Gastric juice was kept frozen at −80° C. until use. In some experiments, the rats were first anesthetized and dissected, after which test reagents were introduced by direct injection into the stomach. […]
(§3) Frozen gastric juice was defrosted at room temperature, mixed by vortexing, and centrifuged for 5 minutes at 14,000 RPM. […] The pH was measured, and NaOH (0.001 N) was added to the sample until pH 7 was reached, as determined by measuring pH using a pH meter (pH211, Hanna Instruments, 35030 Sameola di Rubano, Italy). […]

In a further experiment the test system is gastric mucosa. The settings on record: applied to the luminal surface, in vitro bullfrog model; cited from earlier work.
Experiment [4] concerns gastric acid secretion. As to the kind of experiment: Gastric acid secretion after oral PG in pylorus-ligated rats. Type of experiment: in vivo, Wistar Hanover rats. The conditions noted are these: PG 50 μg P.O., vs saline. As for the experimental part: as §1, §2, §3

Turning to `CC1(C)S[C@@H]2[C@H](NC(=O)[C@H](N)c3ccc(O)cc3)C(=O)N2[C@H]1C(=O)O` [amoxicillin], the “inhibition of bacterial growth (spectrophotometric)” value with H. pylori is recorded as “moderate inhibition”.
Regarding caerulein, the “bacterial growth, CFU counts” value in experiment [1] is “inhibited bacterial growth to an extent similar to that of omeprazole”.
Turning to βAla-Trp-Met-Asp-PheNH2 [PG], the “effect on acid secretion” value in the experiment with acid secretion (four normal subjects) is “no effect”; in the experiment with acid secretion (three patients with gastrointestinal abnormalities), “some effect”. Also, the blood glucose levels result in experiment [2] was “decreased”. The “time of maximal effect on acid secretion after oral PG” value in the experiment on gastric acid secretion [3] (p=0.05) is 30 min. Moreover, the “secretion of acid into the gastric lumen” value with gastric acid secretion [3] (vs saline and S.C. PG, FIG. 4) is “significant secretion of acid”. For the same compound, in experiment [1], the “bacterial growth, CFU counts” value is on record as “inhibited bacterial growth to an extent similar to that of omeprazole”. The “effect on gastric mucosa” value in the experiment on gastric mucosa was “did not affect the gastric mucosa”. Besides, the “inhibition of bacterial growth (spectrophotometric)” value with H. pylori is reported as “moderate inhibition”. For the same compound, the gastric acid output result in the experiment with gastric acid secretion [4] (all time points, p<0.05, FIG. 5B) is on record as “significantly increased”. In addition, the “gastric pH” value with gastric acid secretion [4] (p<0.05, FIG. 5A) is recorded as “decreased”.
